Measurements from patent USRE43932E1, “Crystal modification of a N-phenyl-2-pyrimidineamine derivative, processes for its manufacture and its use” (Novartis AG, priority 1997, dated 2013).
Values belong to the molecule of their own block, whether it stands above or below them.

How the values were obtained:
[1] = Flow properties of the crystals; assay type: physicochemical; conditions: for solid dosage forms
[2] = tested on: tracheal allogenic transplants; conditions: 50 mg/kg combined with CsA 1 mg/kg s.c.
Excerpt: In contrast to patients without OB, those with OB often show an elevated PDGF concentration in bronchoalveolar lavage fluids.

[3] = tested on: denuded left common carotid artery; assay: Rat carotid artery denudation, cell counts and BrdU labelling; assay type: in vivo, male Wistar rats
denuded thoracic aorta = assay: Rat thoracic aorta denudation, cell counts; assay type: in vivo, male Wistar rats; conditions: rats, 50 mg/kg i.p. per day
PDGF receptor = assay: PDGF-stimulated receptor tyrosine kinase activity in PDGF receptor immune complexes of BALB/c 3T3 cells; assay type: biochemical
Procedure: The inhibition of PDGF-stimulated receptor tyrosine kinase activity in vitro is measured in PDGF receptor immune complexes of BALB/c 3T3 cells, as described by E. Andrejauskas-Buchdunger and U. Regenass in Cancer Research 52, 5353-5358 (1992).

[4] = tested on: angiogenic effect of growth factors (VEGF, PDGF, bFGF); assay: Subcutaneous agar chamber angiogenesis model with growth factor; assay type: in vivo, mice (C57 BL/6); conditions: mice, oral dose of 50 mg/kg once daily, chambers removed after 5 days
Procedure: Dosing is started one day before implantation of the chambers. The chambers are removed after 5 days. The angiogenic efficacy is quantified by measuring both the vascularised tissue which has grown around the implant and the blood content of this tissue (external blood). The blood is determined by measuring the haemoglobin.

- Flow properties [1]: unfavourable
Structure (SMILES): CS(=O)(=O)O.Cc1ccc(NC(=O)c2ccc(CN3CCN(C)CC3)cc2)cc1Nc1nccc(-c2cccnc2)n1 [α-crystal form]

Structure (SMILES): CS(=O)(=O)O.Cc1ccc(NC(=O)c2ccc(CN3CCN(C)CC3)cc2)cc1Nc1nccc(-c2cccnc2)n1 [β-crystal form]
- Flow properties [1]: substantially more favourable than those of the α-crystal form
- Effect of combination with CsA [2]: synergism
- Absolute number of BrdU-labelled cells in the intima, media, and adventitia ([3]; first two labelling periods (0-72 and 72-96 h)): slight decrease
- Number of BrdU-labelled cells in all compartments ([3]; labelling after 93-96 h): decrease
- Cell count for smooth-muscle cells in the carotid ([3]; rats, 50 mg/kg i.p. per day, 4 days after denudation): significant decrease
- Cell count in the adventitia and the media ([3]; rats, 50 mg/kg i.p. per day, carotid denudation): significant reduction
- Number of smooth-muscle cells in aorta-denuded animals (denuded thoracic aorta): Decreases

Structure (SMILES): Cc1ccc(NC(=O)c2ccc(CN3CCN(C)CC3)cc2)cc1Nc1nccc(-c2cccnc2)n1 [compound of formula I]
- PDGF-dependent acellular receptor phosphorylation (PDGF receptor): inhibits
- Angiogenic effect of growth factors (VEGF, PDFG, bFGF) [4]: inhibits
